Data on four molecules can be found in PMC12394750, “2H-1,4-Benzoxazin-3(4H)-one linked 1,2,3-triazole derivatives and their study on inducing DNA damage in tumor cells” (Frontiers in Pharmacology, 2025).

Data set [1] has as its system Huh-7 cells. As to the kind of experiment: RT-PCR gene expression. The format is cell-based, human. Particulars: Huh-7, 72 h; for Caspase-7 gene expression: c5, c14 30 μM; for ATG7 gene expression / H2AX gene expression / Keap1 gene expression / TNF-α gene expression / p21 gene expression / p53 gene expression: c5, c14, c16 30 μM; for Bax gene expression / Bcl2 gene expression: c14, c16 30 μM. Here is the method:
To investigate the molecular mechanisms underlying the anti-tumor activity of 2H-1,4-benzoxazin-3(4H)-one linked 1,2,3-triazole derivatives, we examined the expression of key genes involved in cell growth and death, including those related to DNA damage, oxidative stress, apoptosis, and autophagy. Huh-7 cells were treated with compounds c5 (30 μM), c14 (30 μM), c16 (30 μM), and c18 (20 μM) for 72 h, followed by RT-PCR analysis.
FIGURE 5 Compounds c5, c14, c16, and c18 increased the gene expression. (A–D) Huh-7 cells were treated with different concentrations of compounds c5, c14, c16, and c18 (20 or 30 μM) for 72 h. Gene expressions were detected by RT-PCR. Data were presented as means ± SEM; *P < 0.05.
Huh-7 cells were seeded in a 12-well plate and treated with compounds for 72 h. Total RNA was extracted using TRIzol reagent (Ambion, United States), and RT-PCR was performed using PowerUp™ SYBR™ Green Master Mix (ABI, United States). Gene expression was normalized to GAPDH. Values were expressed as mean ± SEM. Statistical significance was assessed using a two-tailed Student’s t-test. P < 0.05 was considered statistically significant.

In data set [2] the test system is Huh-7 cells. As to the kind of experiment: Annexin V-FITC/PI apoptosis flow cytometry. The format is cell-based, human. Particulars: Huh-7, 10, 20 or 30 μM, 72 h. Here is the method:
Apoptosis, a programmed form of cell death, was investigated to understand the molecular mechanisms behind the anti-proliferative effects of the novel compounds. Huh-7 cells were treated with various concentrations (10 μM, 20 μM, or 30 μM) of compounds c5, c14, c16, and c18 for 72 h. The cells were then stained with Annexin V-FITC and propidium iodide (PI) and analyzed by flow cytometry to determine the proportion of apoptotic cells.
Cells were plated at a density of 3 × 10^5 cells per well in a 6-well plate. Different concentrations of compounds were added to cells for 72 h. Then, cells were collected and washed with PBS. Annexin V-FITC and propidium iodide were then added to stained cells for 20 min. Apoptotic cells were quantified by a flow cytometer, and raw data were further analyzed by Flow Jo software v10. Values were expressed as mean ± SEM. Statistical significance was assessed using one-way ANOVA followed by the Student–Newman–Keuls test. P < 0.05 was considered statistically significant. Data were visualized using GraphPad Prism.
(A flow cytometer gives signals particle by particle.)

Data set [3] deals with Huh-7 cells. As to the kind of experiment: DNA damage staining (γ-H2AX). The format is cell-based, human. Particulars: Huh-7, 10, 20 or 30 μM, 24 h. As for the experimental part:
In order to further verify the effects of 2H-1,4-benzoxazin-3(4H)-one linked 1,2,3-triazole derivatives on DNA damage, Huh-7 cells were treated with different concentrations (10 μM, 20 μM, or 30 μM) of compounds c5, c14, c16, and c18. After 24 h of treatment, cells were detected with the DNA damage assay kit and observed under a fluorescence microscope.
FIGURE 7 Compounds c5, c14, c16, and c18 affected DNA damage. (A–D) DNA damage detection shown by γ-H2AX staining in Huh-7 cells treated with compounds c5, c14, c16, and c18 (10 μM, 20 μM, or 30 μM).
Huh-7 cells with a density of 2 × 10^3 cells/well were seeded in 96-well plates. Different doses (0 μM, 5 μM, 10 μM, 20 μM, or 30 μM) of the compounds were added to cells for 24 h. A DNA Damage Detection Kit was used to dye the cells. The cell nucleus was stained blue, and DNA-damaged cells were stained green. The cells were observed and photographed by a fluorescent microscope.

For another data set, the system named is KM mice. As to the kind of experiment: Acute toxicity test, HE staining of organs. Format: in vivo. Conditions: male KM mice, 500 mg/kg via gavage, 14 consecutive days. As for the experimental part:
We assessed the safety of compound c18 using an acute toxicity test in KM mice. Male mice were divided into a control group and a c18-treated group, with the latter receiving 500 mg/kg of compound c18 via gavage for 14 consecutive days, while the control group received an equivalent volume of solvent. To evaluate the safety of compound c18, major organs—including the heart, liver, spleen, lungs, and kidneys—were collected from treated KM mice and subjected to hematoxylin and eosin (HE) staining.

As to `O=C1COc2cc(NC(=O)c3cccc(-c4cn(Cc5ccc(Br)cc5)nn4)c3)ccc2N1` [compound c5, 3-(1-(4-bromobenzyl)-1H-1,2,3-triazol-4-yl)-N-(3-oxo-3,4-dihydro-2H-benzo[b][1,4]oxazin-7-yl)benzamide], in the data set on Huh-7 cells [1] (c5 30 μM), the Atg5 gene expression result is “remained unchanged”, the Gpx4 gene expression entry is listed as “either downregulated or unchanged” and the Nrf2 gene expression entry is on record as “either downregulated or unchanged”. For the same molecule, the Caspase-7 gene expression entry with Huh-7 cells [1] is “notably increased”. Further, in the data set on Huh-7 cells [1] (c18 20 μM), the ATG7 gene expression result is given as “downregulated”, the H2AX gene expression result was “no significant changes”, the Keap1 gene expression result is reported as “significantly upregulated” and the TNF-α gene expression result is listed as “significantly upregulated”. Besides, in the data set with Huh-7 cells [1] (c18 20 μM), the p21 gene expression entry is reported as “no significant changes” and the p53 gene expression result is listed as “no significant changes”. Moreover, the “Apoptosis (proportion of apoptotic cells)” value in the data set with Huh-7 cells [2] was “significant, dose-dependent increases”. The “DNA damage (γ-H2AX staining)” value in the data set on Huh-7 cells [3] is “significantly induce cell DNA damage”.

Consider `O=C1COc2cc(NC(=O)c3cccc(-c4cn(Cc5cccc(F)c5)nn4)c3)ccc2N1` [compound c14, 3-(1-(3-fluorobenzyl)-1H-1,2,3-triazol-4-yl)-N-(3-oxo-3,4-dihydro-2H-benzo[b][1,4]oxazin-7-yl)benzamide], for which, in the data set with Huh-7 cells [1], the Caspase-7 gene expression entry was “no significant changes”, the Bax gene expression result is given as “no significant changes” and the Bcl2 gene expression result is recorded as “significantly increased”. In the data set with Huh-7 cells [1] (c18 20 μM), the H2AX gene expression entry is reported as “significantly upregulated”, the Keap1 gene expression result is listed as “significantly increased”, the p21 gene expression entry was “unchanged or downregulated” and the p53 gene expression result is on record as “unchanged or downregulated”. Besides, in the data set with Huh-7 cells [1] (c14 30 μM), the autophagy-related gene expression entry is listed as “No differences” and the caspase-6 gene expression entry is “no significant changes”. Further, the “Apoptosis (proportion of apoptotic cells)” value with Huh-7 cells [2] is “significant, dose-dependent increases”. Further, the “DNA damage (γ-H2AX staining)” value with Huh-7 cells [3] is reported as “significantly induce cell DNA damage”.

In the case of `O=C1COc2cc(NC(=O)c3cccc(-c4cn(Cc5ccc(C(F)(F)F)cc5)nn4)c3)ccc2N1` [compound c16, N-(3-oxo-3,4-dihydro-2H-benzo[b][1,4]oxazin-7-yl)-3-(1-(4-(trifluoromethyl)benzyl)-1H-1,2,3-triazol-4-yl)benzamide], in the data set on Huh-7 cells [1] (c18 20 μM), the ATG7 gene expression result is given as “downregulated”, the H2AX gene expression entry was “markedly upregulated”, the TNF-α gene expression result is reported as “markedly upregulated” and the p53 gene expression result is recorded as “markedly upregulated”. For the same molecule, in the data set on Huh-7 cells [1], the Bax gene expression entry is given as “elevated” and the Bcl2 gene expression result was “elevated”. Also, the “Apoptosis (proportion of apoptotic cells)” value in the data set on Huh-7 cells [2] was “significant, dose-dependent increases”. Also, the “DNA damage (γ-H2AX staining)” value in the data set with Huh-7 cells [3] is reported as “significantly induce cell DNA damage”.

`O=C1COc2cc(NC(=O)c3cccc(-c4cn(Cc5ccc(Cl)cc5)nn4)c3)ccc2N1` [compound c18, 3-(1-(4-chlorobenzyl)-1H-1,2,3-triazol-4-yl)-N-(3-oxo-3,4-dihydro-2H-benzo[b][1,4]oxazin-7-yl)benzamide]: the “Histopathological changes of heart, liver, spleen, lungs, kidneys (HE staining)” value in the data set with KM mice was “no significant histopathological changes”. Moreover, in the data set with Huh-7 cells [1] (c18 20 μM), the ATG7 gene expression entry is “downregulated”, the Keap1 gene expression result is “dramatically upregulated”, the p21 gene expression result is given as “dramatically upregulated” and the apoptosis-related gene expression result is on record as “no changes”. The “Apoptosis (proportion of apoptotic cells)” value in the data set on Huh-7 cells [2] is given as “significant, dose-dependent increases”. For the same molecule, the “DNA damage (γ-H2AX staining)” value in the data set with Huh-7 cells [3] is recorded as “significantly induce cell DNA damage”.
